Here are results for 2 compounds from patent US9657013B2, “Inhibitors of hepatitis B virus covalently closed circular DNA formation and their method of use” (priority 2012, dated 2017).

For orientation: CC50 means the concentration at which the toxic effect on the cells reaches its halfway point. Read a low CC50 as harm at low concentration.

For one series, the system named is HepDE19 cells. Kind of series: cytotoxicity assay (MTT, CC50). In kind it is cell-based. The procedure: (§1) Cell plates were then incubated with compound dilutions and controls as described above, and addition of 3-[4,5-dimethylthiazol-2-yl]-2,5-diphenyltetrazolium bromide (MTT, Sigma-Aldrich) was added to a final concentration of 0.5 mg/ml (Mosmann, T. 1983). Plates were again incubated at 37° C. for 4 hrs, after which 10% SDS/0.01N HCl was added to each well in a volume equal to the medium (100 μl), followed by overnight incubation. Absorbance was read in the Rainbow spectrophotometer (Tecan US Inc., Durham, N.C.) at 570 nm (reference wavelength of 630 nm), and analyzed with XLfit 4.0 as described above.

In series [1] the test system is HBV e antigen (HBeAg) production in HepDE19 cells. As to the kind of experiment: HBeAg ELISA in HepDE19 cells (surrogate marker for cccDNA). To be noted: nine days incubation. The format is cell-based, hepatitis B virus. On the procedure: High throughput compound screen and assay: HepDE19 cells were cultured under tetracycline containing medium until confluent, the cells were then trypsinized and seeded in 96-well plates at a density of 5.0×10^4 cells/well with tetracycline-free medium to induce HBV replication. Immediately following cell seeding, compounds were added to screening plates by means of automated liquid handling (Beckman Coulter, Brea, Calif.), at a final concentration of 10 μM in 1.0% DMSO. Each screening plate consisted of 80 compound test wells, 4 wells of cells with 1.0% DMSO only, 4 wells with DMSO and without cells, and 4 wells of cells with DMSO and 50 μM lamivudine (3TC) as a reference inhibitor. […] Intracellular HBeAg (precore) accumulation was assayed by indirect ELISA assay as follows. Media was removed from wells and the cell monolayer was fixed with 100% ice cold methanol for 20 min, followed with two washes (150 μl each) with PBS containing 0.5% Tween-20 (PBST) with 1 min incubation at room temperature. […] Signal was allowed to develop for 20 minutes and optical absorbance was determined at a wavelength of 650 nm with a reference reading at 490 nm. […]
A general note: An ELISA detects its analyte on a solid surface through an enzyme-linked reagent.

A short description of series [2]: cytotoxicity assay (MTT, CC50). In kind it is cell-based. As to conditions: human, HepDE19 cells. On the procedure: as §1

Molecules are shown by their SMILES.

Take `O=C(CN(c1cc(C(F)(F)F)ccc1Cl)S(=O)(=O)c1ccccc1)NCc1ccncc1` [CCC-0975, 2-[Benzenesulfonyl-(2-chloro-5-trifluoromethyl-phenyl)-amino]-N-pyridin-4-ylmethyl-acetamide]: in the series with HepDE19 cells, the CC50 is above 50000 nM. Moreover, the HBeAg production result in series [1] is given as “inhibitor”.
`Cc1nc2cc(NC(=O)c3ccc(S(=O)(=O)N(C)Cc4ccccc4)cc3)ccc2s1` [CCC-0346, 4-(Benzyl-methyl-sulfamoyl)-N-(2-methyl-benzothiazol-5-yl)-benzamide]: half-maximal cytotoxicity in series [2] (CC50) was put at 3000 nM. Moreover, the HBeAg production result in series [1] is “inhibitor”.
